# In PubChem BioAssay AID256 (DTP/NCI, 2004):
# “And” between values parts separate entries of the source, which are not always exact repeats. Identical values can stand only once. Inconclusive results and toxic doses are left out.
# Test system: CD2F1 mice, L1210 leukemia ip, survival T/C
# Experiment: NCI In Vivo Anticancer Drug Screen. Data for tumor model L1210 Leukemia (intraperitoneal) in CD2F1 (CDF1) mice
# Details: higher = longer survival
# Outline: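 Read-out first: treated-group measurement over vehicle-control measurement, expressed as a ratio. Animals bore a transplanted tumor line and were dosed with compound or vehicle.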
# [1] = endpoint: mean survival time, dose: 100.0 mg/kg/injection, schedule: Q01DX001 (ip), vehicle: saline
# [2] = endpoint: mean survival time, dose: 200.0 mg/kg/injection, schedule: Q01DX001 (ip), vehicle: saline
# [3] = endpoint: mean survival time, dose: 400.0 mg/kg/injection, schedule: Q01DX001 (ip), vehicle: saline
# [4] = endpoint: mean survival time, dose: 50.0 mg/kg/injection, schedule: Q01DX009 (ip), vehicle: saline with Tween-80
# [5] = endpoint: mean survival time, dose: 100.0 mg/kg/injection, schedule: Q01DX009 (ip), vehicle: saline with Tween-80
# [6] = endpoint: mean survival time, dose: 200.0 mg/kg/injection, schedule: Q01DX009 (ip), vehicle: saline with Tween-80
# [7] = endpoint: mean survival time, dose: 400.0 mg/kg/injection, schedule: Q01DX009 (ip), vehicle: saline with Tween-80
smiles,measurement,setting,value
CCCN(CCC)S(=O)(=O)c1ccc(NC(=O)Oc2ccccc2OC)cc1,T/C,[1],95 % of control
same,T/C,[2],91 % of control
same,T/C,[3],91 % of control
CCCCCOc1ccccc1Cl,T/C,"endpoint: mean survival time, dose: 100.0 mg/kg/injection, schedule: Q04DX002 (ip), vehicle: saline with Tween-80",101 % of control
same,T/C,"endpoint: mean survival time, dose: 200.0 mg/kg/injection, schedule: Q04DX002 (ip), vehicle: saline with Tween-80",98 % of control
C1OCN2CSCC12 (centres undefined),T/C,"endpoint: mean survival time, dose: 12.5 mg/kg/injection, schedule: Q01DX009 (ip), vehicle: saline with Tween-80",93 % of control and 96 % of control
same,T/C,"endpoint: mean survival time, dose: 25.0 mg/kg/injection, schedule: Q01DX009 (ip), vehicle: saline with Tween-80",98 % of control and 100 % of control
same,T/C,[4],98 % of control and 102 % of control
same,T/C,[5],101 % of control and 103 % of control
same,T/C,[6],104 % of control and 108 % of control
same,T/C,[7],110 % of control
NC(N)=NCCCC(NC(c1ccccc1)(c1ccccc1)c1ccccc1)C(=O)O (centres undefined),T/C,[1],88 % of control
same,T/C,[2],92 % of control
same,T/C,[3],98 % of control
OC(COc1ccccc1Cl)COc1ccccc1Cl,T/C,"endpoint: mean survival time, dose: 100.0 mg/kg/injection, schedule: Q04DX003 (ip), vehicle: saline + alcohol",101 % of control
same,T/C,"endpoint: mean survival time, dose: 200.0 mg/kg/injection, schedule: Q04DX003 (ip), vehicle: saline + alcohol",95 % of control
same,T/C,"endpoint: mean survival time, dose: 400.0 mg/kg/injection, schedule: Q04DX003 (ip), vehicle: saline + alcohol",95 % of control
CO[C@@]12[C@@H]3N[C@@H]3CN1C1=C(C(=O)C(NCCc3ccccn3)=C(C)C1=O)[C@@H]2COC(N)=O,T/C,"endpoint: median survival time, dose: 3.12 mg/kg/injection, schedule: Q01DX001 (ip), vehicle: saline with Tween-80",93 % of control
same,T/C,"endpoint: median survival time, dose: 3.13 mg/kg/injection, schedule: Q01DX005 (ip), vehicle: saline with Tween-80",153 % of control
same,T/C,"endpoint: median survival time, dose: 6.25 mg/kg/injection, schedule: Q01DX001 (ip), vehicle: saline with Tween-80",111 % of control
same,T/C,"endpoint: median survival time, dose: 6.25 mg/kg/injection, schedule: Q01DX005 (ip), vehicle: saline with Tween-80",164 % of control
same,T/C,"endpoint: median survival time, dose: 12.5 mg/kg/injection, schedule: Q01DX001 (ip), vehicle: saline with Tween-80",120 % of control
same,T/C,"endpoint: median survival time, dose: 12.5 mg/kg/injection, schedule: Q01DX005 (ip), vehicle: saline with Tween-80",166 % of control
same,T/C,"endpoint: median survival time, dose: 18.0 mg/kg/injection, schedule: Q01DX001 (ip), vehicle: saline with Tween-80",153 % of control
same,T/C,"endpoint: median survival time, dose: 25.0 mg/kg/injection, schedule: Q01DX005 (ip), vehicle: saline with Tween-80",89 % of control
same,T/C,"endpoint: median survival time, dose: 30.0 mg/kg/injection, schedule: Q01DX001 (ip), vehicle: saline with Tween-80",160 % of control
same,T/C,"endpoint: median survival time, dose: 50.0 mg/kg/injection, schedule: Q01DX001 (ip), vehicle: saline with Tween-80",188 % of control and 200 % of control
same,T/C,"endpoint: median survival time, dose: 83.32 mg/kg/injection, schedule: Q01DX001 (ip), vehicle: saline with Tween-80",156 % of control
same,T/C,"endpoint: median survival time, dose: 3.12 micrograms/kg/injection, schedule: Q01DX001 (ip), vehicle: saline with Tween-80",97 % of control
same,T/C,"endpoint: median survival time, dose: 6.25 micrograms/kg/injection, schedule: Q01DX001 (ip), vehicle: saline with Tween-80",102 % of control
same,T/C,"endpoint: median survival time, dose: 12.5 micrograms/kg/injection, schedule: Q01DX001 (ip), vehicle: saline with Tween-80",108 % of control
same,T/C,"endpoint: median survival time, dose: 25.0 micrograms/kg/injection, schedule: Q01DX001 (ip), vehicle: saline with Tween-80",97 % of control
same,T/C,"endpoint: median survival time, dose: 50.0 micrograms/kg/injection, schedule: Q01DX001 (ip), vehicle: saline with Tween-80",97 % of control
same,T/C,"endpoint: median survival time, dose: 3125.0 micrograms/kg/injection, schedule: Q01DX001 (ip), vehicle: saline with Tween-80",118 % of control
same,T/C,"endpoint: median survival time, dose: 25000.0 micrograms/kg/injection, schedule: Q01DX001 (ip), vehicle: saline with Tween-80",153 % of control
same,T/C,"endpoint: median survival time, dose: 50000.0 micrograms/kg/injection, schedule: Q01DX001 (ip), vehicle: saline with Tween-80",322 % of control
Cc1ncc(C[P+](c2ccccc2)(c2ccccc2)c2ccccc2)c2c1OC(C)(C)OC2,T/C,"endpoint: mean survival time, dose: 75.0 mg/kg/injection, schedule: Q01DX001 (ip), vehicle: saline",103 % of control
same,T/C,"endpoint: mean survival time, dose: 150.0 mg/kg/injection, schedule: Q01DX001 (ip), vehicle: saline",112 % of control
Nc1nc2ccc(CSc3ccc(C(=O)NC(CCC(=O)O)C(=O)O)cc3)nc2c(=O)[nH]1 (centres undefined),T/C,"endpoint: mean survival time, dose: 0.5 mg/kg/injection, schedule: Q01DX005 (ip), vehicle: sodium bicarbonate",103 % of control and 106 % of control
same,T/C,"endpoint: mean survival time, dose: 1.0 mg/kg/injection, schedule: Q01DX005 (ip), vehicle: sodium bicarbonate",97 % of control and 106 % of control
same,T/C,"endpoint: mean survival time, dose: 2.0 mg/kg/injection, schedule: Q01DX005 (ip), vehicle: sodium bicarbonate",97 % of control and 108 % of control
same,T/C,"endpoint: mean survival time, dose: 4.0 mg/kg/injection, schedule: Q01DX005 (ip), vehicle: sodium bicarbonate",101 % of control and 106 % of control
same,T/C,"endpoint: mean survival time, dose: 8.0 mg/kg/injection, schedule: Q01DX005 (ip), vehicle: sodium bicarbonate",97 % of control and 108 % of control
same,T/C,"endpoint: mean survival time, dose: 16.0 mg/kg/injection, schedule: Q01DX005 (ip), vehicle: sodium bicarbonate",102 % of control and 103 % of control
O=S(=O)(O)O.[NH-]C1CCCCC1[NH-].[Pt+2] (centres undefined),T/C,"endpoint: mean survival time, dose: 0.04 mg/kg/injection, schedule: Q01DX009 (ip), vehicle: water",109 % of control
same,T/C,"endpoint: mean survival time, dose: 0.05 mg/kg/injection, schedule: Q04DX003 (ip), vehicle: water",110 % of control
same,T/C,"endpoint: mean survival time, dose: 0.32 mg/kg/injection, schedule: Q01DX001 (ip), vehicle: water",120 % of control
same,T/C,"endpoint: mean survival time, dose: 0.63 mg/kg/injection, schedule: Q01DX001 (ip), vehicle: dextrose",124 % of control
same,T/C,"endpoint: mean survival time, dose: 0.63 mg/kg/injection, schedule: Q04DX003 (oral), vehicle: water",96 % of control
same,T/C,"endpoint: mean survival time, dose: 0.78 mg/kg/injection, schedule: Q04DX003 (ip), vehicle: dextrose",119 % of control
same,T/C,"endpoint: mean survival time, dose: 1.2 mg/kg/injection, schedule: Q01DX009 (oral), vehicle: water",100 % of control
same,T/C,"endpoint: mean survival time, dose: 1.25 mg/kg/injection, schedule: Q01DX001 (ip), vehicle: dextrose",119 % of control
same,T/C,"endpoint: mean survival time, dose: 1.25 mg/kg/injection, schedule: Q01DX001 (oral), vehicle: water",98 % of control
same,T/C,"endpoint: mean survival time, dose: 1.25 mg/kg/injection, schedule: Q04DX003 (oral), vehicle: water",98 % of control
same,T/C,"endpoint: mean survival time, dose: 1.56 mg/kg/injection, schedule: Q04DX003 (ip), vehicle: saline with Tween-80",100 % of control
same,T/C,"endpoint: mean survival time, dose: 2.4 mg/kg/injection, schedule: Q01DX009 (oral), vehicle: water",97 % of control
same,T/C,"endpoint: mean survival time, dose: 2.5 mg/kg/injection, schedule: Q01DX001 (ip), vehicle: dextrose",124 % of control
same,T/C,"endpoint: mean survival time, dose: 3.12 mg/kg/injection, schedule: Q04DX003 (ip), vehicle: saline with Tween-80",110 % of control
same,T/C,"endpoint: mean survival time, dose: 5.0 mg/kg/injection, schedule: Q01DX001 (oral), vehicle: water",100 % of control
same,T/C,"endpoint: mean survival time, dose: 10.0 mg/kg/injection, schedule: Q01DX001 (ip), vehicle: dextrose",109 % of control
same,T/C,"endpoint: mean survival time, dose: 10.0 mg/kg/injection, schedule: Q04DX003 (oral), vehicle: water",98 % of control
same,T/C,"endpoint: mean survival time, dose: 12.5 mg/kg/injection, schedule: Q04DX003 (ip), vehicle: dextrose",110 % of control
same,T/C,"endpoint: mean survival time, dose: 12.5 mg/kg/injection, schedule: Q04DX003 (ip), vehicle: saline",93 % of control
same,T/C,"endpoint: mean survival time, dose: 40.0 mg/kg/injection, schedule: Q01DX001 (oral), vehicle: water",109 % of control
CC(=O)Nc1ccc(S(=O)(=O)N(CCO)CCO)cc1,T/C,"endpoint: mean survival time, dose: 100.0 mg/kg/injection, schedule: Q01DX001 (ip), vehicle: saline with Tween-80",100 % of control
same,T/C,"endpoint: mean survival time, dose: 100.0 mg/kg/injection, schedule: Q01DX009 (ip), vehicle: saline sonified",100 % of control
same,T/C,"endpoint: mean survival time, dose: 200.0 mg/kg/injection, schedule: Q01DX001 (ip), vehicle: saline with Tween-80",102 % of control
same,T/C,"endpoint: mean survival time, dose: 200.0 mg/kg/injection, schedule: Q01DX009 (ip), vehicle: saline sonified",95 % of control
same,T/C,"endpoint: mean survival time, dose: 400.0 mg/kg/injection, schedule: Q01DX001 (ip), vehicle: saline with Tween-80",98 % of control
same,T/C,"endpoint: mean survival time, dose: 400.0 mg/kg/injection, schedule: Q01DX009 (ip), vehicle: saline sonified",97 % of control
Nc1nc(N)c2ncn(C3CC(CO)C(O)C3O)c2n1 (centres undefined),T/C,[4],89 % of control
CCCCCCCCCCCCCCCCOc1ccccc1/C=N/O,T/C,"endpoint: mean survival time, dose: 100.0 mg/kg/injection, schedule: Q01DX009 (ip), vehicle: Klucel (hydroxypropylcellulose) (HPC)",87 % of control
same,T/C,"endpoint: mean survival time, dose: 200.0 mg/kg/injection, schedule: Q01DX009 (ip), vehicle: Klucel (hydroxypropylcellulose) (HPC)",89 % of control
COC1CC2C=C(C)/C=C/C=C/C(=O)NC(c3ccccc3)C/C=C/CCC(O)CC(=O)C2=C1O (centres undefined),T/C,"endpoint: median survival time, dose: 3.12 mg/kg/injection, schedule: Q01DX009 (ip), vehicle: Klucel (hydroxypropylcellulose) (HPC)",108 % of control
same,T/C,"endpoint: median survival time, dose: 6.25 mg/kg/injection, schedule: Q01DX009 (ip), vehicle: Klucel (hydroxypropylcellulose) (HPC)",111 % of control
same,T/C,"endpoint: median survival time, dose: 12.5 mg/kg/injection, schedule: Q01DX009 (ip), vehicle: Klucel (hydroxypropylcellulose) (HPC)",101 % of control
Cc1cc(CO)c(O)c(CO)c1,T/C,[5],91 % of control
same,T/C,[6],91 % of control
same,T/C,[7],91 % of control
